Results from patent publication US11920136B2, “Transglutaminase-mediated conjugation” (Tallac Therapeutics, Inc., priority 2020, dated 2024).

Columns and labels:
B cells = test: B cell activation by anti-CD22 (RFB4):CpG conjugates in human PBMCs (Examples 2 and 4); type: cell-based; settings: for B cell activation as determined by CD80 expression: conjugate to anti-CD22 antibody (SEQ ID NO: 56 and 57), DAR1, compared with conjugate of CpG (SEQ ID NO: 3) and naked CpG; for B cell activation (CD19, CD40, CD69, CD86, HLADR expression): RFB4 conjugates, DAR1, 96 hours
Method: (§1) PBMCs were immediately plated onto a 96-well format (500K/well) in Complete RPMI (RPMI+10% FBS). Five-fold serial dilutions were added to the cells from 100 nM to 6.4 pM of antibody and conjugated antibody and 1 uM to 64 pM of CpG polynucleotides at 37° C. under 5% CO2 for 48 to 96 hours. Cells were pelleted by centrifugation for five minutes at 400×g and stained at 4° C. in Fixable Viability Dye eFluor 780 (Thermo Fisher Scientific) diluted 1:4000 in PBS. Cells were centrifuged and stained at 4° C. in FACS buffer for 30 minutes containing FcR Blocking Reagent (Miltenyi Biotec), anti-CD19, anti-CD20, anti-CD40, anti-HLADR and anti-CD80 for B cell assays and anti-CD14, anti-CD3, anti-CD19, anti-CD14, anti-CD123, anti-CD11 c and anti-CD86 for pDC assays. Cells were centrifuged and washed twice in FACS buffer and fixed in 0.5% paraformaldehyde. CountBright™ Absolute Counting Beads (Thermo Fisher) were added to each well to count the number of cells. Cells were analyzed on ATTUNE™ NxT Flow Cytometer (Thermo Fisher Scientific), with subsequent data analysis by Flowjo 10.7 (Treestar). Dead cells were excluded by gating on the eFluor 780-negative population. Lineage specific cells were first excluded (CD19, CD3, CD14) prior to gating CD123^+CD11c^− cells to identify pDC and gating CD19^+, CD20^+ or CD19^+CD20^+ cells to identify B cells.
(§2) Trima residuals were received from Vitalant and diluted 1:4 with Phosphate Buffered Saline (PBS, Gibco). Diluted blood was split into two tubes and underplayed with 15 mL Ficoll-Paque (GE Healthcare). Tubes were centrifuged for 30 minutes at 400×g. PBMCs were collected from the interface and resuspended in FACS buffer (PBS with 0.5% Bovine Serum Albumin (Gibco)).
as §1, with “antiCD11” for “anti-CD11”, “COUNTBRIGHT™” for “CountBright™”, “Fisher Scientific)” for “Fisher)”
Various B-cell and pDC specific antibodies were conjugated with CpG 12070 (SEQ ID NO: 3), CpG (SEQ ID NOs: 9, 12, 20, 27 and 28), all with the DAR1 configuration, at their C-terminus heavy chain Q-tag ([…]) (SEQ ID NO: 49) via transglutaminase reaction. The conjugated antibodies were subsequently tested for their effects on proliferation and/or activation. […] As shown in FIGS. 5A-5D, the anti-CD22-CpG antibodies enhanced the activation of B cells as compared to naked CpG polynucleotide 12070 (SEQ ID NO: 3) and human IgG control antibody after 96 hours. As determined by CD19, CD40, CD69, CD86, and HLADR expression, only anti-CD22-CpG and CpG alone induced B cell activation. Direct delivery of CpG by a targeting antibody results in higher activation as compared to CpG alone.

CD19 positive B cells = test: Free CpG activity on CD40 expression by CD19+ B cells in human PBMCs (Examples 16-17); type: cell-based; settings: compared with 12070
Method: as §2, with “1:2” for “1:4”, “interface, resuspended” for “interface”, “washed” for “resuspended”, “(Gibco)). After one wash, PBMCs were resuspended in Complete RPMI (RPMI+10% FBS).” for “(Gibco)).”
PBMCs were immediately plated onto a 96-well format (500K/well) in Complete RPMI. Five-fold serial dilutions were added to the cells from 1 uM to 64 pM of CpG polynucleotides at 37° C. under 5% CO2 for 48 hours. Cells were pelleted by centrifugation for five minutes at 400×g and stained at 4° C. in Fixable Viability Dye eFluor 780 (Thermo Fisher) diluted 1:4000 in PBS. Cells were centrifuged and stained at 4° C. in FACS buffer for 30 minutes containing FcR Blocking Reagent (Miltenyi Biotec), anti-CD19, anti-CD20, anti-CD40, anti-HLADR and anti-CD80. Cells were centrifuged and washed twice in FACS buffer and fixed in 0.5% paraformaldehyde. Cells were analyzed on ATTUNE™ NxT Flow Cytometer (Thermo Fisher Scientific), with subsequent data analysis by FLOWJO™ 10.7 (Treestar). […] B cells were identified as CD19+CD20+ cells and level of activation marker was assessed by median fluorescent intensity. […]

CD19+CD20+ B cells = test: Anti-CD22 (TNT127):CpG conjugates on human PBMCs, CD40 on CD19+ B cells (Examples 19-20); type: cell-based; settings: conjugated to antibody TNT127 (DAR1), compared to the 12070 conjugate
Method: Trima residuals were received from Vitalant and diluted 1:2 with Phosphate Buffered Saline (PBS, Gibco). Diluted blood was split into two tubes and underplayed with 15 mL FICOLL® PAQUE medium (GE Healthcare). Tubes were centrifuged for 30 minutes at 400×g. PBMCs were collected from the interface, resuspended and washed in FACS buffer (PBS with 0.5% Bovine Serum Albumin (Gibco)). After one wash, PBMCs were resuspended in Complete RPMI (RPMI+10% FBS). PBMCs were immediately plated onto a 96-well format (500K/well) in Complete RPMI. Five-fold serial dilutions were added to the cells from 100 nM to 6.4 pM conjugated antibody at 37° C. under 5% CO2 for 48 hours. Cells were pelleted by centrifugation for five minutes at 400×g and stained at 4° C. in Fixable Viability Dye eFluor 780 (Thermo Fisher Scientific) diluted 1:4000 in PBS. Cells were centrifuged and stained at 4° C. in FACS buffer for 30 minutes containing FcR Blocking Reagent (Miltenyi Biotec), anti-CD19, anti-CD20, anti-CD40, anti-HLADR and anti-CD80. Cells were centrifuged and washed twice in FACS buffer and fixed in 0.5% paraformaldehyde. Cells were analyzed on ATTUNE™ NxT Flow Cytometer (Thermo Fisher Scientific), with subsequent data analysis by FLOWJO™ 10.7 (Treestar). Dead cells were excluded by gating on the eFluor 780-negative population.
The activity of CD22 antibody-CpG conjugates DAR1 and DAR2 were compared for activity.

[1] = system: EMT6 mouse mammary carcinoma cells; test: EMT6 breast cancer model, intratumoral administration; type: in vivo, BALB/c mice; settings: intratumorally 2 doses every 3 days at 24 uM
Method: 100 uL of suspended cells were subcutaneously implanted into the right flank of 6 week old female BALB/c mice (Charles River). Tumor size was measured and recorded twice a week with calipers starting 7 days post implantation until duration of the study, approximately 25 days later. Tumor volume was calculated using the following formula: (length×width×width)/2. Once tumors reached on average 180 mm^3, approximately 7 days post implantation, mice were randomized by tumor size and treatments were initiated.

| Substance | B cell activation as determined by CD80 expression (B cells) | other results |
| --- | --- | --- |
| SEQ ID NO: 13: "modified CpGs"; tested "as an antibody-CpG conjugate" "to anti-CD22 antibody (SEQ ID NO: 56 and SEQ ID NO: 57)" (DNA UCGTCGTGTCGTTT; modified CpG; (1)..(14) Linkages as shown in Table 2 of the specification; (1)..(14) Modified as shown in Table 2 of the specification) | increased B cell activation |  |
| 7-6: CpG oligonucleotide: "CpG 7-6 (SEQ ID NO:34)" (DNA UCGTCGTGTCGTTT; chemically modified, pattern not given here) |  | CD40 expression in PBMC from three donors (D559, D804 and D643) (CD19 positive B cells): higher activities; CD40 expression (CD19+CD20+ B cells): substantially better activity |
| SEQ ID NO: 15: "modified CpGs"; tested "as an antibody-CpG conjugate" "to anti-CD22 antibody (SEQ ID NO: 56 and SEQ ID NO: 57)" (DNA UCGTCGTGTCGTT; modified CpG; (1)..(13) Linkages as shown in Table 2 of the specification; (1)..(13) Modified as shown in Table 2 of the specification) | increased B cell activation |  |
| SEQ ID NO: 12: "modified CpGs"; tested "as an antibody-CpG conjugate" "to anti-CD22 antibody (SEQ ID NO: 56 and SEQ ID NO: 57)" (DNA UCGTCGTGTCGTTT; modified CpG; (1)..(14) Linkages as shown in Table 2 of the specification; (1)..(14) Modified as shown in Table 2 of the specification) | increased B cell activation |  |
| SEQ ID NO: 20: "modified CpGs"; tested "as an antibody-CpG conjugate" "to anti-CD22 antibody (SEQ ID NO: 56 and SEQ ID NO: 57)" (DNA UCGTCGTGTCGTT; modified CpG; (1)..(13) Linkages as shown in Table 2 of the specification; (1)..(13) Modified as shown in Table 2 of the specification) | increased B cell activation | B cell activation (CD19, CD40, CD69, CD86, HLADR expression) (B cells): enhanced activity |
| SEQ ID NO: 9: "modified CpGs"; tested "as an antibody-CpG conjugate" "to anti-CD22 antibody (SEQ ID NO: 56 and SEQ ID NO: 57)" (DNA UCGTCGTGTCGTTT; modified CpG; (1)..(14) Linkages as shown in Table 2 of the specification; (1)..(14) Modified as shown in Table 2 of the specification) | increased B cell activation | B cell activation (CD19, CD40, CD69, CD86, HLADR expression) (B cells): enhanced activity |
| CpG-4253: "the free CpG (CpG-4253)"; apparently "4523 murine CpG oligonucleotide", "tucgtcgtgacgtt-c3" (SEQ ID NO:121) (DNA TUCGTCGTGACGTT; 3' C3 spacer, chemistry not fully specified; listed as Mus musculus) |  | anti-tumor potency [1]: showed anti-tumor potency |
